Laboratory results from ChEMBL document CHEMBL1148561, “Design, synthesis, and biological evaluation of the N-diarylalkenyl-piperidinecarboxylic acid derivatives as GABA uptake inhibitors (I)” (Bioorg Med Chem Lett, 2006).
pIC50: −log10 of the molar value.

These compounds were tested against Sodium- and chloride-dependent GABA transporter 1 (Homo sapiens, UniProt P30531) (assay: Inhibition of GAT1 transport activity).
Sodium- and chloride-dependent GABA transporter 1, sequence (P30531 whole entry): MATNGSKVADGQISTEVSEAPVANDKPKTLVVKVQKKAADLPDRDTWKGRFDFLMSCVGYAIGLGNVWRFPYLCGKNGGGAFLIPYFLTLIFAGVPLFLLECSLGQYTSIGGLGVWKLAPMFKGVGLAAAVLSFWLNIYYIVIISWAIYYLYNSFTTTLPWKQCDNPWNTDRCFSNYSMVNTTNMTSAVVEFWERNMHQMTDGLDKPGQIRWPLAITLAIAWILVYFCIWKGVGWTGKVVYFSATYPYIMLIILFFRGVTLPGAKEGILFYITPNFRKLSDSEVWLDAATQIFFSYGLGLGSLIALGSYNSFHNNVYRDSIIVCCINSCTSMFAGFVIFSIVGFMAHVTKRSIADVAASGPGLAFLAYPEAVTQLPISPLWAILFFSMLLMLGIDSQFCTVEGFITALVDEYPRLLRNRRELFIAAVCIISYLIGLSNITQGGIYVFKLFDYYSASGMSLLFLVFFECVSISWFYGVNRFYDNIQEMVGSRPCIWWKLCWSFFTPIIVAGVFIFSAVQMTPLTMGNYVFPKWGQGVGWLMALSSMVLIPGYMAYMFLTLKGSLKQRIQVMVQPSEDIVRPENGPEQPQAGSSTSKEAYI
A pIC50 of 6.19 was found for `O=C(O)C1CCCCN1CCC=C(c1sccc1COc1ccccc1)c1sccc1COc1ccccc1` (stereo not given) in this work.
A pIC50 of 6.03 was found for `O=C(O)C1CCCCN1CCC=C(c1sccc1COC1CCCCC1)c1sccc1COC1CCCCC1` (stereo not given) in this work.
A pIC50 of 5.55 was found for `COCc1ccsc1C(=CCCN1CCC[C@@H](C(=O)O)C1)c1sccc1COC` in this work.
A pIC50 of 5.87 was found for `Cc1ccsc1C(=CCCN1CCCCC1C(=O)O)c1sccc1C` (stereo not given) in this work.
A pIC50 of 6.47 was found for `O=C(O)[C@@H]1CCCN(CCC=C(c2sccc2COc2ccccc2)c2sccc2COc2ccccc2)C1` in this work.
A pIC50 of under 4.00 was found for `O=C(O)C1CCCCN1CCC=C(c1sccc1COc1cccc2ccccc12)c1sccc1COc1cccc2ccccc12` (stereo not given) in this work.
A pIC50 of 5.15 was found for `CC(C)OCc1ccsc1C(=CCCN1CCC[C@@H](C(=O)O)C1)c1sccc1COC(C)C` in this work.
A pIC50 of 5.82 was found for `O=C(O)C1CCN(CCC=C(c2sccc2COc2ccccc2)c2sccc2COc2ccccc2)CC1` in this work.
A pIC50 of under 4.00 was found for `Cc1ccsc1C(=CCCN1CCC(C(=O)O)CC1)c1sccc1C` in this work.
A pIC50 of 4.56 was found for `O=C(O)C1CCCCN1CCC=C(c1sccc1COCc1ccccc1)c1sccc1COCc1ccccc1` (stereo not given) in this work.
A pIC50 of under 4.00 was found for `CC(C)OCc1ccsc1C(=CCCN1CCCCC1C(=O)O)c1sccc1COC(C)C` (stereo not given) in this work.
A pIC50 of 5.91 was found for `O=C(O)C1CCN(CCC=C(c2sccc2COC2CCCCC2)c2sccc2COC2CCCCC2)CC1` in this work.
A pIC50 of 6.08 was found for `O=C(O)[C@@H]1CCCN(CCC=C(c2sccc2COCc2ccccc2)c2sccc2COCc2ccccc2)C1` in this work.
A pIC50 of under 4.00 was found for `CC(C)OCc1ccsc1C(=CCCN1CCC(C(=O)O)CC1)c1sccc1COC(C)C` in this work.
A pIC50 of 4.18 was found for `O=C(O)[C@@H]1CCCN(CCC=C(c2sccc2COc2cccc3ccccc23)c2sccc2COc2cccc3ccccc23)C1` in this work.
A pIC50 of 5.36 was found for `O=C(O)C1CCN(CCC=C(c2sccc2COCc2ccccc2)c2sccc2COCc2ccccc2)CC1` in this work.
A pIC50 of under 4.00 was found for `COCc1ccsc1C(=CCCN1CCC(C(=O)O)CC1)c1sccc1COC` in this work.
A pIC50 of 4.91 was found for `COCc1ccsc1C(=CCCN1CCCCC1C(=O)O)c1sccc1COC` (stereo not given) in this work.
A pIC50 of under 4.00 was found for `O=C(O)C1CCN(CCC=C(c2sccc2COc2cccc3ccccc23)c2sccc2COc2cccc3ccccc23)CC1` in this work.
A pIC50 of 6.17 was found for `O=C(O)[C@@H]1CCCN(CCC=C(c2sccc2COC2CCCCC2)c2sccc2COC2CCCCC2)C1` in this work.
